Laboratory results from US5385893A, “Tricyclopolyazamacrocyclophosphonic acids, complexes and derivatives thereof, for use as contrast agents” (The Dow Chemical Company, priority 1993, dated 1995).

Legend:
[1] = Biolocalization of complexes having an overall charge of +1 (bone uptake); format: in vivo; settings: complex having an overall charge of +1
[2] = Complexation: percent samarium metal as a complex (Sephadex column); format: physicochemical
Protocol: Metal ligand complexes were prepared by various methods. The methods included mixing of the metal and ligand in aqueous solution and adjusting the pH to the desired value. Complexation was done in solutions containing salts and/or buffers as well as water.
For example, a solution of the ligand is prepared by dissolving the ligand in deionized water (about pH=2). A ligand/metal complex was then prepared by combining the ligand solution with aqueous SmCl3.H2 O (3×^-4 M in 0.01N HCl) containing tracer ^153 SmCl3. After thorough mixing, the percent metal as a complex was determined by passing a sample of the complex solution through a Sephadex™ column, eluting with 4:1 saline (0.85% NaCl/NH4 OH), and collecting 2×3 mL fractions. The amount of radioactivity in the combined elutions was then compared with that left on the resin. Under these conditions, complex was removed with the eluent and non-complexed metal is retained on the resin. By this method complexation was determined to usually be about 95% or greater.
Using the above procedure, the complexes of samarium with […]

[3] = breakdown of the blood/brain barrier allows perfusion; cited from earlier work
[4] = in vivo; cited from earlier work
[5] = Prohance versus Magnevist; cited from earlier work
[6] = Biodistribution of 153Sm complexes in rats (% injected dose per organ, NaI scintillation counting after tail vein injection); format: in vivo, Sprague Dawley rats; settings: 2 hours post injection; for Biodistribution: Brain / Biodistribution: Heart / Biodistribution: Kidney / Biodistribution: Large Intestine / Biodistribution: Liver / Biodistribution: Lung / Biodistribution: Small Intestine / Biodistribution: Spleen / Biodistribution: Stomach / Biodistribution: Blood / Biodistribution: Bone / Biodistribution: Muscle: i.v. tail vein; for Biodistribution: Blood: blood assumed 6.5% of body weight; for Biodistribution: Bone: femur x 25; for Biodistribution: Muscle: muscle assumed 43% of body weight; for Ratio Bone/Blood / Ratio Bone/Liver / Ratio Bone/Muscle / Ratio Bone/Spleen: ratio of average % injected dose
Protocol: A stock ^159 GdCl3 (or ^153 SMCl3) solution was prepared by adding 2 μL of 3×10^-4 M ^159 GdCl3 in 0.1N HCl to 2 mL of a 3×10^-4 M GdCl3 carrier solution. Appropriate ligand solutions were then prepared in deionized water. The 1:1 ligand/metal complexes were then prepared by combining the ligands (dissolved in 100-500 μL of deionized water) with 2 mL of the stock ^159 GdCl3 solution, followed by through mixing to give an acidic solution (pH=2). The pH of the solution was then raised to 7.0 using 0.1N NaOH. The percent metal as a complex was then determined by passing a sample of the complex solution through a Sephadex™ G-50 column, eluting with 4:1 saline ([…]) and collecting 2×3 mL fractions. The amount of radioactivity in the combined elutions was then compared with that left on the resin (non-complexed metal is retained on the resin). The pH stability profile was generated by adjusting the pH of an aliquot of the complex solution using 1M NaOH or 1M HCl and determining the percent of the metal existing as a complex using the ion exchange method described above. The Sm results are known by expermintal comparison to be identical for complexation and biodistribution of the ligands of this invention.
Sprague Dawley rats were allowed to acclimate for five days then injected with 100 μL of the complex solution via a tail vein. The rats weighed between 150 and 250 g at the time of injection. […] The amount of radioactivity in each tissue was determined by counting in a NaI scintillation counter coupled to a multichannel analyzer. The counts were compared to the counts in 100 μL standards in order to determine the percentage of the dose in each tissue or organ.
The percent dose in blood was estimated assuming blood to be 6.5% of the total body weight. The percent dose in bone was estimated by multiplying the percent dose in the femur by 25. The percent dose in muscle was estimated assuming muscle to be 43% of the total body weight.
In addition to organ biodistribution, chelates of the compounds of Formula (I) were evaluated for efficiency of bone localization since phosphonates are known for their ability to bind to hydroxyapatite.

With O=C(O)CN1Cc2cccc(n2)CN(CC(=O)O)Cc2cccc(n2)C1 [BP2A, N,N'-diacetic acid-2,11-diaza[3.3]-(2,6)pyridinophane] the “bone uptake of complex” value [1] was “displays bone uptake” and the “percent metal as a complex” value ([2]; ligand:metal ratio of 4:1) was 99%.
With CCOP(=O)(O)CN1Cc2cccc(n2)CN(CP(=O)(O)OCC)Cc2cccc(n2)C1 [BP2EP, N,N'-bis(methylenephosphonic acid ethyl ester)-2,11-diaza[3.3](2,6)pyridinophane] the “percent metal as a complex” value ([2]; ligand:metal ratio of 4:1) was 98%.
In the case of O=P(O)(O)CN1Cc2cccc(n2)CN(CP(=O)(O)O)Cc2cccc(n2)C1 [BP2P, N,N'-bis (methylenephosphonic acid) -2,11-diaza[3.3](2,6)pyridinophane], the “percent metal as a complex” value ([2]; ligand:metal ratio of 3:1) is reported as 95%.
In the case of CNC[C@H](O)[C@@H](O)[C@H](O)[C@H](O)CO.CNC[C@H](O)[C@@H](O)[C@H](O)[C@H](O)CO.O=C([O-])CN(CCN(CC(=O)[O-])CC(=O)O)CCN(CC(=O)[O-])CC(=O)O.[Gd+3] [Magnevist, complex of gadolinium with diethylenetriaminepentaacetic acid], the “usefulness in the diagnosis of brain lesions” value [3] is given as “extremely valuable in the diagnosis of brain lesions” and the distribution and elimination [4] is given as “freely distribute in extracellular fluid followed by efficient elimination through the renal system”.
In the case of CC(O)CN1CCN(CC(=O)[O-])CCN(CC(=O)[O-])CCN(CC(=O)[O-])CC1.[Gd+3] (stereo not drawn) [Prohance, [1,4,7-tris(carboxymethyl)-10-(2-hydroxypropyl)-1,4,7,10-tetraazacyclododecanato]-gadolinium], the distribution and elimination [4] is listed as “freely distribute in extracellular fluid followed by efficient elimination through the renal system” and the side effects [5] is listed as “fewer side effects than Magnevist”.
In the case of O=C(O)CN1Cc2cccc(n2)CN(CC(=O)O)Cc2cccc(n2)CN(CC(=O)O)Cc2cccc(n2)C1 [TP3A, N,N',N"-triacetic acid-2,11,20-diaza[3.3.3](2,6)pyridinophane], the “percent metal as a complex” value ([2]; ligand:metal ratio of 3:1) is reported as 98.6%.
With O=C([O-])CN1Cc2cccc(n2)CN(CC(=O)[O-])Cc2cccc(n2)C1.[153Sm+3] [^153 Sm-BP2A, ^153 Sm N,N'-diacetic acid-2,11-diaza[3.3](2,6)pyridinophane] the “Biodistribution: Brain” value [6] was 0.01 % INJECTED DOSE, the “Biodistribution: Heart” value [6] was 0.02 % INJECTED DOSE and the “Biodistribution: Kidney” value [6] was 0.95 % INJECTED DOSE. The “Biodistribution: Large Intestine” value [6] was 0.04 % INJECTED DOSE, the “Biodistribution: Liver” value [6] was 0.68 % INJECTED DOSE and the “Biodistribution: Lung” value [6] was 0.06 % INJECTED DOSE. The “Biodistribution: Small Intestine” value [6] was 0.80 % INJECTED DOSE, the “Biodistribution: Spleen” value [6] was 0.01 % INJECTED DOSE and the “Biodistribution: Stomach” value [6] was 0.05 % INJECTED DOSE. The “Biodistribution: Blood” value [6] was 0.43 % INJECTED DOSE, the “Biodistribution: Bone” value [6] was 27.98 % INJECTED DOSE and the “Biodistribution: Muscle” value [6] was 0.80 % INJECTED DOSE. The “Ratio Bone/Blood” value [6] was 65, the “Ratio Bone/Liver” value [6] was 41 and the “Ratio Bone/Muscle” value [6] was 35. The “Ratio Bone/Spleen” value [6] was 2,798.
With CCOP(=O)([O-])CN1Cc2cccc(n2)CN(CP(=O)([O-])OCC)Cc2cccc(n2)C1.[153Sm+3] [^153 Sm-BP2EP, ^53 Sm N,N'-bis(methylenephosphonic acid ethyl ester)-2,11-diaza[3.3](2,6)pyridinophane] the “Biodistribution: Brain” value [6] was 0.01 % INJECTED DOSE, the “Biodistribution: Heart” value [6] was 0.04 % INJECTED DOSE and the “Biodistribution: Kidney” value [6] was 0.74 % INJECTED DOSE. The “Biodistribution: Large Intestine” value [6] was 0.25 % INJECTED DOSE, the “Biodistribution: Liver” value [6] was 5.97 % INJECTED DOSE and the “Biodistribution: Lung” value [6] was 0.19 % INJECTED DOSE. For the same molecule, the “Biodistribution: Small Intestine” value [6] was 0.33 % INJECTED DOSE, the “Biodistribution: Spleen” value [6] was 0.32 % INJECTED DOSE and the “Biodistribution: Stomach” value [6] was 0.36 % INJECTED DOSE. For the same molecule, the “Biodistribution: Blood” value [6] was 0.45 % INJECTED DOSE, the “Biodistribution: Bone” value [6] was 39.82 % INJECTED DOSE and the “Biodistribution: Muscle” value [6] was 1.21 % INJECTED DOSE. For the same molecule, the “Ratio Bone/Blood” value [6] was 88, the “Ratio Bone/Liver” value [6] was 7 and the “Ratio Bone/Muscle” value [6] was 33. For the same molecule, the “Ratio Bone/Spleen” value [6] was 124.
For O=P([O-])([O-])CN1Cc2cccc(n2)CN(CP(=O)([O-])[O-])Cc2cccc(n2)C1.[153Sm+3] [^153 Sm-BP2P, ^153 Sm N,N'-bis(methylenephosphonic acid)-2,11-diaza[3.3](2,6)pyridinophane], the “Biodistribution: Brain” value [6] was 0.01 % INJECTED DOSE, the “Biodistribution: Heart” value [6] was 0.07 % INJECTED DOSE and the “Biodistribution: Kidney” value [6] was 1.21 % INJECTED DOSE. For the same molecule, the “Biodistribution: Large Intestine” value [6] was 0.13 % INJECTED DOSE, the “Biodistribution: Liver” value [6] was 3.71 % INJECTED DOSE and the “Biodistribution: Lung” value [6] was 0.17 % INJECTED DOSE. For the same molecule, the “Biodistribution: Small Intestine” value [6] was 0.39 % INJECTED DOSE, the “Biodistribution: Spleen” value [6] was 0.05 % INJECTED DOSE and the “Biodistribution: Stomach” value [6] was 0.20 % INJECTED DOSE. For the same molecule, the “Biodistribution: Blood” value [6] was 0.87 % INJECTED DOSE, the “Biodistribution: Bone” value [6] was 60.08 % INJECTED DOSE and the “Biodistribution: Muscle” value [6] was 1.53 % INJECTED DOSE. The “Ratio Bone/Blood” value [6] was 69, the “Ratio Bone/Liver” value [6] was 16 and the “Ratio Bone/Muscle” value [6] was 39. For the same molecule, the “Ratio Bone/Spleen” value [6] was 1,201.
For O=C([O-])CN1Cc2cccc(n2)CN(CC(=O)[O-])Cc2cccc(n2)CN(CC(=O)[O-])Cc2cccc(n2)C1.[153Sm+3] [^153 Sm-TP3A, ^153 Sm N,N',N"-triacetic acid-2,11,20-diaza[3.3.3](2,6)pyridinophane], the “Biodistribution: Heart” value [6] was 0.016 % INJECTED DOSE, the “Biodistribution: Kidney” value [6] was 0.639 % INJECTED DOSE and the “Biodistribution: Large Intestine” value [6] was 0.156 % INJECTED DOSE. The “Biodistribution: Liver” value [6] was 0.570 % INJECTED DOSE, the “Biodistribution: Lung” value [6] was 0.047 % INJECTED DOSE and the “Biodistribution: Small Intestine” value [6] was 1.426 % INJECTED DOSE. The “Biodistribution: Spleen” value [6] was 0.068 % INJECTED DOSE, the “Biodistribution: Stomach” value [6] was 0.036 % INJECTED DOSE and the “Biodistribution: Blood” value [6] was 0.437 % INJECTED DOSE. The “Biodistribution: Bone” value [6] was 1.495 % INJECTED DOSE, the “Biodistribution: Muscle” value [6] was 0.833 % INJECTED DOSE and the “Ratio Bone/Blood” value [6] was 3. The “Ratio Bone/Liver” value [6] was 3, the “Ratio Bone/Muscle” value [6] was 2 and the “Ratio Bone/Spleen” value [6] was 22.
